Assay results from patent publication US8101653B2, “Therapeutic compositions” (BTG International Limited, priority 1997, dated 2012).

Legend:
whole brain GABA levels = experiment: Effect of increased blood D-β-hydroxybutyrate on whole brain GABA levels; assay type: in vivo, rat; settings: 120 minutes after administration as in Example 3; t=0 level 191
Description: To assess the effect of D-β-hydroxybutyrate on whole brain GABA levels, and thus provide an indication of antiepileptic effect of ketone body or precursor treatment aimed at increasing blood ketone body levels, whole rat brain was frozen at set times after administration of D-β-hydroxybutyrate as described in Example 3, GBA was assayed using standard HPLC technique and related to protein content using standard protein assay.

[1] = cited from earlier work
[2] = system: primary hippocampal cultures; experiment: Effect of D-β-hydroxybutyrate on β-amyloid toxicity to hippocampal cells in vitro (microisland cultures); assay type: cell-based, Wistar; settings: for neuronal cell number per microisland: increase from a mean of 30
Description: The serum free medium used from 0 to day 4 contained Neurobasal medium with B27 supplement diluted 50 fold (Life Technology, Gaithersburg, Md.) to which was added: 0.5 mM L-glutamine, 25 μM Na L-glutamate, 100 U/ml penicillin and 100 μg/ml streptomycin. After day 4, DMEM/F12 medium containing 5 μM insulin, 30 nM 1-thyroxine, 20 nM progesterone, 30 nM Na selenite 100 U/ml penicillin and 100 μg/ml streptomycin were used.
The primary hippocampal cultures were removed from Wistar embryos on day 18 and dispersed by gentle aggitation in a pipette. The suspension was centrifuge at 1,500×g for 10 min and the supernatant discarded. New media was make 0.4-0.5×10^6 cells/ml. Ten μl of this suspension was pipetted into the center of poly D-lysine coated culture wells and the plates incubated at 38° C. for 4 hrs and then 400 μl of fresh Neurobasal media was added. After 2 days of incubation, half of the media was exchanged for fresh media and the incubation continued for 2 more days. After day 4, the medium was changed with DMEM/F12 medium containing 5 μM insulin, 30 nM 1-thyroxine, 20 nM progestrone, 30 nM Na selenite 100 U/ml penicillin and 100 μg/ml streptomycin. […] These media were exchanged 2 days later (day 8) and the cells were fixed on day 10 and stained with anti MAP2 (Boehringer Manheim, Indianapolis, Id.) to visual neurons and vimentin and GFAP (Boehringer) to visualize glial cells.

[3] = room temperature, unesterified state; cited from earlier work
[4] = system: liver cytosolic [NAD]/[NADH]; settings: after feeding/administration; 1,3 butandiol decrease from 1500; cited from earlier work
[5] = cited from earlier work; remark: listed apart in the source
[6] = system: cerebral circulation and regional vasomotor reflexes; settings: in vivo; cited from earlier work
[7] = liquid diet supplemented with 47% of its caloric content; cited from earlier work
septal cells = settings: 1 μm Aβ142 for 24 hours; cited from earlier work
[8] = Rats fed triolide in 'Hob-Nob' biscuit, tolerability over two weeks; assay type: in vivo; settings: two rats fed approximately 1.5 g triolide each in biscuit, after two weeks
[9] = Oral administration of triolide in yoghurt to rats, plasma D-β-hydroxybutyrate and tolerability; assay type: in vivo, Wistar rats; settings: over at least 3 hours
Description: The ability of orally administered triolide to raise blood ketone levels was investigated as follows. The day before the experiment commenced, 12 Wistar rats weighing 316±10 g were placed in separate cages. They had no access to food for 15 hours prior to presentation with triolide containing compositions, but water was provided ad libitum.
On the morning of the experiment 0.64 g of triolide was mixed with 5 g Co-op brand Black Cherry yoghurt in separate feeding bowls for […] of the rats. The memaining 3 rats were given 5 g of the yoghurt without the triolide as controls. The yoghurt containing bowls were placed in the cages and the rats timed while they ate. Two of the three control rats ate all the yoghurt and four of the six triolide yoghurt rats ate approximately half the provided amount. The remaining […] rats slept.
Control rats (n=2) were killed at 60 and 180 minutes after ingestion of yoghurt while triolide fed rats were killed at 80, 140, 150 and 155 minutes. Blood samples were taken for assay of D-β-hydroxybutyrate. […] Blood levels of (R)-3-hydroxyburyrate were measured using a […] assay of Anal. Biochem (1983) 131, p 478-482, 1.0 ml of a solution made up from 2-amino-2-methyl-1-propanol (100 mM pH 9.9, 0.094 g/10 ml), NAD^− (30 mM. 0.199 g/10 ml) and EDTA (4 mM, 0.015 g/10 ml) was added to each of a number of cuvettes and 4 μl sample or D-β-hydroxybutyrate control.

[10] = presence of D-β-hydroxybutyrate, whether β142 was present or not
[11] = intravenous infusion, normal human subjects and patients

C[C@@H](O)CC(=O)O [D-β-hydroxybutyrate, (R)-3-hydroxybutyric acid]
whole brain GABA levels (whole brain GABA levels): 466 pmoles/μg protein | pKa [1]: 4.4 | neuronal cell number per microisland ([2]; D-β-hydroxybutyrate added to cultures containing amyloid β142): 70 cells per microisland | neuronal cell number per microisland ([2]; Na D-β-hydroxybutyrate 8 mM, no amyloid): 70 cells per microisland | length of axons [2, 10]: increased | number of dendritic outgrowths [2, 10]: increased

CC(=O)CC(=O)O [acetoacetate]
half time of spontaneous decarboxylation to acetone [3]: about 30 days

CCO [ethanol]
liver cytosolic [NAD]/[NADH] [4]: around 200

C[C@@H](O)CC(=O)[O-].[Na+] [sodium salts of D-β-hydroxybutyrate]
toxicity ([5]; human, in vivo, iv): non-toxic | effect on glucose, free fatty acids and glycerol concentration [5, 11]: capable of decreasing | effect on leucine oxidation [5, 11]: ineffective

CC(O)CC(=O)[O-].[Na+] (centres unmarked) [sodium hydroxybutyrate]
increase of cerebral circulation and regional vasomotor reflexes [6]: up to 40%

CC(O)CCO (racemic) [racemic 1,3 butandiol, 1,3 butandiol]
blood D-β hydroxybutyrate concentration [7]: 0.98 mM | blood acetoacetate concentration [7]: 0.33 mM | rise of blood ketone concentration [7]: about 10 fold | liver cytosolic [NAD]/[NADH] [4]: 1000

amyloid β142: amyloid β peptide (Sigma), toxic to hippocampal neurons
activity of choline acetyl transferase (septal cells): no decrease | decrease in acetyl choline production (septal cells): over five fold

C[C@@H]1CC(=O)O[C@H](C)CC(=O)O[C@H](C)CC(=O)O1 [triolide, (R,R,R)-4,8,12-trimethyl-1,5,9-trioxadodeca-2,6,10-trione]
ill effects [8]: no ill effects | ill effects from ingestion [9]: no ill effects
